Data reported in patent publication US8618154B2, “LXR modulators” (Bristol-Myers Squibb Company, priority 2009, dated 2013).

How the values were obtained:
ABCA1 gene expression = assay: Human whole blood assay (hWBA), ABCA1 mRNA induction; assay type: cell-based; details: for Emax: Homo sapiens, 4 h, percent of reference pan agonist (maximal activity defined as 100%), read-out: hWBA hABCA1 L30 Max P (%); for EC50: human whole blood, 4 hours, ABCA1 mRNA normalized to L30, read-out: hWBA hABCA1 L30 EC50
Experimental: Human whole blood was collected in EDTA containing tubes and 0.5 mL aliquots were immediately mixed in a 96 well block with the appropriate serial dilution of test compound, in 0.5% DMSO. Compounds were incubated with blood at 37° C. with constant rocking for 4 hours. After incubation, cells were lysed in ABI Nucleic Acid Purification Lysis Solution (Applied Biosystems catalog #4305895) and frozen at −80° C. Following cell lysis, total RNA was purified using an ABI 6100 RNA prep station according to the protocol provided by the manufacturer. cDNAs were synthesized, and mRNAs were quantitated using SYBR-Green Quantitative PCR (Q-PCR) on an ABI Prism 7900HT Sequence Detection System and reagents from Quanta Bioscience Inc (Quanta Bioscience catalog #95047 and 95055).
The quantity of each mRNA was determined by the ΔΔCT method (Michael W. Pfaffl. A new mathematical model for relative quantification in real-time RT-PCR. Nucleic Acids Research, 2001, Vol. 29, No. 9 e45) and normalized to the quantity of two control mRNAs, i.e. ribosomal protein L-30 (L-30) and beta-2-microglobulin (B2M). The induction of ABCA1 and ABCG1 by test compound was graphed as a percent of the reference compound, 2-(4-(5-(5-cyano-1-(2,4-difluorobenzyl)-6-oxo-4-(trifluoromethyl)-1,6-dihydropyridin-2-yl)thiophen-2-yl)-3-methylphenyl)acetic acid, and potency (EC50) and activity (% MAX) were calculated by fitting a sigmoidal response curve as a function of log transformed compound concentration using XLFit software according to the equation y=A+((B−A)/(1+((C/x)^D))).

[1] = High throughput metabolic stability in human microsomes; assay type: in vitro ADME; details: parent compound remaining at 10 minutes, human liver microsomes
Experimental: The metabolic stability assay evaluates CYP-mediated metabolic stability in vitro using Human liver microsomes after a ten-minute incubation.
Test compound is received as a 3.5 mM stock solution in 100 percent DMSO. Compound is diluted to create a 50 μM acetonitrile (ACN) solution containing 1.4% DMSO, which is then used as a 100× stock for incubation with human liver microsomes. Each compound is tested in duplicate. Compound, NADPH and liver microsome solutions are combined for incubation in three steps: • 1) 152 μl of liver microsome suspension, protein concentration of 1.1 mg/ml in 100 mM NaPi, pH 7.4, 5 mM MgCl2 buffer, is pre-warmed at 37° C. • 2) 1.7 μl of 50 μM compound (98.6% ACN, 1.4% DMSO) is added to the same tube and pre-incubated at 37° C. for 5 minutes. • 3) The reaction is initiated by the addition of 17 μl of pre-warmed 10 mM NADPH solution in 100 mM NaPi, pH 7.4.
Reaction components are mixed well, and 75 μl are immediately transferred into 150 μl quench/stop solution (zero-time point, T0). Reactions are incubated at 37° C. for 10 minutes and then an additional 75 μl aliquot is transferred into 150 μl quench solution. Acetonitrile containing 100 μM DMN (a UV standard for injection quality control), is used as the quench solution to terminate metabolic reactions.
Quenched mixtures are centrifuged at 1500 rpm (˜500× g) in an Allegra X-12 centrifuge, SX4750 rotor (Beckman Coulter Inc., Fullerton, Calif.) for fifteen minutes to pellet denatured microsomes. A volume of 90 μl of supernatant extract, containing the mixture of parent compound and its metabolites, is then transferred to a separate 96-well plate for UV-LC/MS-MS analysis to determine the per cent of parent compound that is remaining in the mixture.
The mass spectrometric conditions obtained from automated infusion are used to analyze incubation samples from the Metabolic Stability assay. The injection volume is 5 μl and the flow rate is 0.8 ml/min. The gradient used is show in the table below. All samples are injected with the gradient using mobile phase A and B first. If necessary (for instance, for chromatographic reasons), samples are re-injected with the same gradient, but using mobile phase C and D. All LC-MS/MS analysis parameters are captured electronically in the raw data files.
Peak integration is performed with the Xcalibur™ software. The percent remaining calculation is performed by comparing the LC-MS/MS peak areas from the T10minute samples to those from the T0minute samples for each compound.

CC(C)(O)c1cn(-c2ccc(-c3cc(F)c(CO)c(S(C)(=O)=O)c3)cc2F)c(Cc2ccccc2F)n1 [Example 16, 2-(1-(3,3′-difluoro-4′-(hydroxymethyl)-5′-(methylsulfonyl)biphenyl-4-yl)-2-(2-fluorobenzyl)-1H-imidazol-4-yl)propan-2-ol]
Emax (ABCA1 gene expression): 41%
EC50 (ABCA1 gene expression): < 100 nM
Human Microsome % Remaining [1]: >80%

CC(C)(O)c1cn(-c2ccc(-c3cc(F)c(CO)c(S(C)(=O)=O)c3)cc2)c(Cc2cc(F)ccc2Cl)n1 [Example 19, 2-[2-(2-Chloro-5-fluoro-benzyl)-1-(3′-fluoro-4′-hydroxymethyl-5′-methanesulfonyl-biphenyl-4-yl)-1H-imidazol-4-yl]-propan-2-ol]
Emax (ABCA1 gene expression): 35%
EC50 (ABCA1 gene expression): < 100 nM
Human Microsome % Remaining [1]: >80%

Cc1ccccc1Cc1nc(C(C)(C)O)cn1-c1ccc(-c2cc(F)c(CO)c(S(C)(=O)=O)c2)cc1 [Example 17, 2-(1-(3′-fluoro-4′-(hydroxymethyl)-5′-(methylsulfonyl)biphenyl-4-yl)-2-(2-methylbenzyl)-1H-imidazol-4-yl)propan-2-ol]
Emax (ABCA1 gene expression): 20%
EC50 (ABCA1 gene expression): < 100 nM
Human Microsome % Remaining [1]: >80%

CC(C)(O)c1cn(-c2ccc(-c3cc(F)c(CO)c(S(C)(=O)=O)c3)cc2)c(Cc2ccc(Cl)cc2Cl)n1 [Example 15, 2-(2-(2,4-dichlorobenzyl)-1-(3′-fluoro-4′-(hydroxymethyl)-5′-(methylsulfonyl)biphenyl-4-yl)-1H-imidazol-4-yl)propan-2-ol]
Emax (ABCA1 gene expression): 47%
EC50 (ABCA1 gene expression): < 100 nM
Human Microsome % Remaining [1]: >80%
